{"source": "patent US20160298082A1", "about": "“METHOD FOR OBTAINING IMMUNO-STIMULATORY DENDRITIC CELLS” (TRANSIMMUNE AG, priority 2013, published 2016)", "key": {"immature MoDC": {"test_system": "immature MoDC", "details": "24 hr"}, "MoDC [1]": {"test_system": "MoDC", "assay": "IL-10 and IL-12p70 ELISA in siRNA experiments", "assay_type": "cell-based, human", "details": "siRNA experiment, not transfected", "procedure": "Silencer select pre-designed and validated GILZ siRNA (Invitrogen), with off-target prediction algorithms, was used to knockdown GILZ expression. Mo-DC were transfected using Lipofectamine RNAiMAX Reagent (Invitrogen). RNAi duplex and lipofectamine reagent were incubated together for 20 min, then added to MoDC cultures and incubated for 2 hr at 37° C. and 5% CO2. Transfected MoDC were treated in an identical fashion as described for the MoDC/lymphocyte co-cultures. MoDC were also transfected with scramble siRNA.\n(§1) Culture supernatants were analyzed in a multiplex format utilizing magnetic beads to IL-6, IL-8, IL-10, IL-12p70, IFN-γ, TNF-α, RANTES, MCP-1, and MIP-1β (BioRad Laboratories). For siRNA experiments, supernatants were analyzed with enzyme-linked immunosorbent assay (ELISA) kits for IL-10 (R&D Systems) and IL-12p70 (Enzo Life Science). All samples and standards were run in duplicate and analyzed using the LUMINEX 200 (LUMINEX), or the BioTek EL800 (BioTek)."}, "GILZ [2]": {"test_system": "GILZ", "assay": "GILZ mRNA expression in CD11c+ MoDC (quantitative real-time PCR)", "assay_type": "cell-based, human"}, "MoDC [3]": {"test_system": "MoDC", "assay": "Cytokine quantification in MoDC supernatants after LPS stimulation (magnetic bead multiplex)", "assay_type": "cell-based, human", "procedure": "Lymphocytes were treated with 8-MOP (100 ng/mL) and UVA (1 J/cm^2), washed with PBS, and co-cultured in complete media at 37° C. and 5% CO2 with either PUVA-treated or untreated-MoDC in a ratio of 5 or 10 lymphocytes to 1 MoDC. MoDC treated for 24 hr with 100 nM dexamethasone (Sigma) served as the positive control group. After 24 hr, cells were harvested and MoDC were re-purified. […] CD11c^+ MoDC were re-plated at 0.5-1.0×10^6 cells/mL in complete media and stimulated with 100 ng/mL LPS (Sigma). 24 hr after LPS stimulation, cells were harvested for RNA isolation and immunophenotyping, and supernatants were collected for cytokine quantification.\nas §1"}, "lymphocytes [4]": {"test_system": "lymphocytes", "assay": "Apoptosis of ECP-processed lymphocytes after overnight incubation", "assay_type": "cell-based, human", "details": "UVA-activated 8-MOP; APO2-PE, Trypan blue and/or annexin/propidium iodide"}, "lymphocytes [5]": {"test_system": "lymphocytes", "assay": "Apoptosis of lymphocytes (Annexin-V/7-AAD)", "assay_type": "cell-based, human"}, "GILZ [6]": {"test_system": "GILZ", "assay": "GILZ mRNA expression in CD11c+ MoDC (quantitative real-time PCR)", "assay_type": "cell-based, human", "details": "relative to untreated MoDC cultured alone; 24 hr (FIG. 13B); dex 100 nM; PUVA 100 ng/mL, 1 J/cm^2", "procedure": "Monocytes were cultured at a density of 5×10^6 cells/mL in 6- and 12-well polystyrene tissue culture plates at 37° C. and 5% CO2 in RPMI-1640 (Gibco) supplemented with heat-inactivated 15% AB serum (Gemini) and 1% penicillin/streptomycin (now referred to as complete media). 800 IU/mL recombinant human GM-CSF (R&D Systems) and 1000 IU/mL recombinant human IL-4 (R&D Systems) were added to cultures for 36 hr to induce monocyte to DC differentiation as described.\nNon-adherent cells (purity: 66.0±4.5% CD3^+) removed during plastic adherence will now be generally referred to as lymphocytes. Lymphocytes were treated with 8-MOP (100 ng/mL) and UVA (1 J/cm^2), washed with PBS, and co-cultured in complete media at 37° C. and 5% CO2 with either PUVA-treated or untreated-MoDC in a ratio of 5 or 10 lymphocytes to 1 MoDC. […] 24 hr after LPS stimulation, cells were harvested for RNA isolation and immunophenotyping, and supernatants were collected for cytokine quantification.\nRNA was isolated from CD11c^+ MoDC using QIAShredder columns (QIAGEN) and the RNeasy Mini Kit (QIAGEN) with on-column Dnase I treatment (QIAGEN). RNA yield and purity were assessed using a NanoDrop ND-1000 spectrophotometer. cDNA was obtained using the High Capacity cDNA Reverse Transcription Kit (Applied Biosystems) in a 96-well thermocycler (MJ Research PTC-200). […]"}, "CD11c+ cells": {"test_system": "CD11c+ cells", "assay": "Apoptosis / cell death of CD11c+ MoDC (Annexin-V/7-AAD)", "assay_type": "cell-based, human", "procedure": "Immunofluorescence was analyzed using a FACSCalibur L (BD Biosciences) within 2 hr of fixation with 2% paraformaldehyde."}, "[7]": {"details": "8-MOP 0 to 200 ng/mL, UVA 1 or 2 J/cm2"}, "[8]": {"details": "product of 8-MOP and UVA exceeded 100"}, "[9]": {"details": "24 hr after LPS stimulation, vs untreated MoDC"}, "[10]": {"details": "100 ng/mL and 1 J/cm^2, 24 hr after treatment"}}}
{"smiles": "COc1c2occc2cc2ccc(=O)oc12", "note": "[8-MOP, 8-methoxypsoralen]", "values": [{"measurement": "Membrane CD83, CD80 and CD86 expression (qualitative)", "setting": "immature MoDC; [7]", "value": "down-regulates"}, {"measurement": "Membrane HLA-DR expression (qualitative)", "setting": "immature MoDC; [7]", "value": "up-regulates"}, {"measurement": "Increase of HLA-DR expression", "setting": "immature MoDC; [8]", "value": 38, "unit": "%"}, {"measurement": "Reduction of CD80 expression", "setting": "immature MoDC; [8]", "value": 30, "unit": "%"}, {"measurement": "Reduction of CD83 expression", "setting": "immature MoDC; [8]", "value": 31, "unit": "%"}, {"measurement": "Reduction of CD86 expression", "setting": "immature MoDC; [8]", "value": 54, "unit": "%"}, {"measurement": "IL-10 to IL-12p70 ratio, non-transfected MoDC cultured alone", "setting": "MoDC [1]", "value": 8.4}, {"measurement": "IL-10 to IL-12p70 ratio, non-transfected PUVA-DC exposed to ApoL", "setting": "MoDC [1]", "value": 28.4}, {"measurement": "GILZ expression", "setting": "GILZ [2]; 0.5 J/cm^2 UVA", "value": "no effect on GILZ expression until the 8-MOP concentration reached 200 ng/mL"}, {"measurement": "GILZ up-regulation", "setting": "GILZ [2]; 1 J/cm^2 UVA, 100 ng/mL 8-MOP, 24 hr", "value": 2.9, "unit": "fold"}, {"measurement": "GILZ up-regulation", "setting": "GILZ [2]; 1 J/cm^2 UVA, 200 ng/mL 8-MOP, 24 hr", "value": 4.4, "unit": "fold"}, {"measurement": "8-MOP concentration at which dose-dependent GILZ up-regulation starts", "setting": "GILZ [2]; 2 J/cm^2 UVA", "value": 50, "unit": "ng/mL"}, {"measurement": "GILZ expression", "setting": "GILZ [2]; 8-MOP alone, without UVA, 24 hr", "value": "did not effect GILZ expression"}, {"measurement": "Time GILZ remains significantly elevated", "setting": "GILZ [2]; 8-MOP and UVA light", "value": 72, "unit": "h"}, {"measurement": "Time of peak GILZ induction after treatment", "setting": "GILZ [2]; 8-MOP and UVA light", "value": 24, "unit": "h"}, {"measurement": "GILZ expression in immature MoDC after 8-MOP plus UVA light (qualitative)", "setting": "GILZ [2]; 24 hr after PUVA", "value": "up-regulates GILZ"}, {"measurement": "GILZ expression increase", "setting": "GILZ [2]; combination of 8-MOP and UVA light, relative to untreated MoDC (FIG. 10E)", "value": 5.5, "unit": "fold"}, {"measurement": "GILZ up-regulation", "setting": "GILZ [2]; product of 8-MOP and UVA = 100", "value": 3, "unit": "fold"}, {"measurement": "GILZ up-regulation", "setting": "GILZ [2]; product of 8-MOP and UVA = 200", "value": 4.8, "unit": "fold"}, {"measurement": "GILZ up-regulation", "setting": "GILZ [2]; product of 8-MOP and UVA = 400", "value": 8.6, "unit": "fold"}, {"measurement": "IL-10 production", "setting": "MoDC [3]; [9]", "value": "increased production of IL-10"}, {"measurement": "Production of pro-inflammatory cytokines and chemokines", "setting": "MoDC [3]; [9]", "value": "decreased production of all pro-inflammatory cytokines and chemokines tested, except TNF-α and IFN-γ"}, {"measurement": "Ratio of IL-10 to IL-12p70, MoDC cultured alone", "setting": "MoDC [3]; after LPS, untreated MoDC 6.7", "value": 38.7}, {"measurement": "Ratio of IL-10 to IL-12p70, PUVA-DC exposed to ApoL", "setting": "MoDC [3]; after LPS, untreated MoDC 6.7", "value": 114.9}, {"measurement": "ECP-processed lymphocytes apoptotic after overnight incubation", "setting": "lymphocytes [4]", "value": 99, "unit": "%"}, {"measurement": "Early apoptotic lymphocytes", "setting": "lymphocytes [5]; [10]", "value": 44.3, "unit": "%"}, {"measurement": "Late apoptotic lymphocytes", "setting": "lymphocytes [5]; [10]", "value": 33.7, "unit": "%"}, {"measurement": "Time at which lymphocytes display Annexin-V after treatment", "setting": "lymphocytes [5]; 1 J/cm^2 and 100 ng/mL (data not shown)", "value": "≤ 2", "unit": "h"}, {"measurement": "Lymphocytes Annexin-V+", "setting": "lymphocytes [5]; 24 hr after treatment", "value": "64.3±3.2", "unit": "%"}, {"measurement": "GILZ up-regulation, MoDC cultured alone", "setting": "GILZ [6]", "value": 2.78, "unit": "fold"}, {"measurement": "Late apoptotic CD11c+ cells", "setting": "CD11c+ cells; 1 J/cm^2, all doses of 8-MOP tested, 24 hr", "value": "less than 13%"}, {"measurement": "Late apoptotic CD11c+ cells", "setting": "CD11c+ cells; 2 J/cm^2, all doses of 8-MOP tested, 24 hr", "value": "less than 16%"}, {"measurement": "Early apoptotic CD11c+ cells compared to untreated MoDC", "setting": "CD11c+ cells; 2 J/cm^2 and 200 ng/mL, 24 hr", "value": "increase"}, {"measurement": "Cell death", "setting": "CD11c+ cells; 4 J/cm^2 UVA (data not shown)", "value": "high levels of non-specific cell death"}]}
